{
  "source": "patent US8728470B2",
  "about": "“CAB molecules” (Danisco US Inc., priority 2004, dated 2014)",
  "assay": "PK and tissue distribution of GC-Mel/Mel at various intervals after CAB 1.11i in TLS174T xenograft mice",
  "type": "in vivo, Ncr athymic nude mice",
  "experimental": "We assessed the tumor retention characteristics of CAB1.11i by monitoring the formation of Mel from the administration of GC-Mel. Dosing solutions were prepared on the day of dosing, within 60 minutes of administration.\nThe concentration of the formulation of GC-Mel in bicarbonate/sucrose was based on average […] weight, the desired volume of administration and a dose level of 150 mg/kg. GC-Mel was weighed out and, based on this weight, the appropriate amount of sodium bicarbonate to neutralize all 3 equivalents of the three carboxylic acid sites of GC-Mel was determined. Vehicle was prepared in the required volume by adding the precalculated sodium bicarbonate solution in 5% aqueous sucrose. Vehicle was prechilled at 4° C. Cold vehicle was added to the GC-Mel powder and the mixture was vortexed and sonicated to achieve speedy dissolution.\nThe animals were be implanted subcutaneously on the flank with 2×10^6 TLS174T cells, a human colorectal tumor line, in 100 μl of phosphate buffered saline. Beginning approximately one week after tumor cell implant, tumors were measured every 3 to 4 days. When the tumors reached approximately 100-250 mm^3, 156 animals were selected based on tumor size and randomized into 7 groups, resulting in a non-significant difference in the mean tumor size between groups at the start of the experiment.\nMice were warmed with a heating lamp and heating pad, placed in a restrainer and the test compounds were administered by bolus intravenous injection via the tail vein. For the blood sampling, all mice were anesthetized by isoflurane inhalation at the time of sample collection. Blood was collected by cardiac puncture into tubes containing EDTA and placed on ice. Tubes were centrifuged at 4000 RPM for two minutes. The plasma fraction was removed into a pre-labeled microfuge tube and placed on dry ice or liquid nitrogen. Sample concentrations were determined.\nTissue samples were rinsed 1× in phosphate buffered saline to remove blood. The samples were snap frozen using liquid nitrogen or dry ice. Tissue samples were stored at −70° C. prior to analysis. […]",
  "data": [
    {"smiles": "N[C@@H](Cc1ccc(N(CCCl)CCCl)cc1)C(=O)O", "note": "[Mel, Melphalan]", "values": [
      {"measurement": "plasma Mel level", "setting": "GC-Mel 150 mg/kg given 96 hrs after CAB 1.11i 1 mg/kg", "value": "decreased to near background (concomitant) levels"},
      {"measurement": "plasma and kidney exposure to Mel (AUC)", "setting": "with increased interval between CAB 1.11i and GC-Mel doses, FIG. 17", "value": "decreased"},
      {"measurement": "systemic melphalan exposure (AUC)", "setting": "with increasing interval, FIG. 18", "value": "decreased"}
    ]}
  ]
}
